Legend:
Format in all cases: cell-based, human
HeLa Kyoto cells = assay: H3S10ph immuno-labelling of synchronised HeLa Kyoto cells; conditions: thymidine double block, BI2536 at 5 μM
Description: HeLa Kyoto cells were synchronised in S phase by a double thymidine block (Sigma). Briefly, a final concentration of 3 mM thymidine was added to the culture medium for 18 h, followed by release into fresh culture medium for 9 h and a second block with 3 mM thymidine for 17 h. […] Cell synchronisation was confirmed by flow cytometry. For immunofluorescence, HeLa Kyoto cells were grown on coverslips (12 mm #1 VWR International) and synchronised as described above. The synchronised cells were rinsed in PBS, fixed in 1% PFA, permeabilised with 0.1% Triton X-100/0.02% SDS, and blocked in 2% BSA. After the blocking step, phosphohistone H3 (H3S10ph) antibody was applied for 1 h at a dilution of 1/500 and after three washes with PBS, Alexa Fluor 594 antibody was added at a dilution of 1/300 for 1 h. Coverslips were washed three times in PBS and mounted with Vectashield non-fade DAPI (Vector Laboratories).

T47D cells = assay: H3S10ph immuno-staining, mitotic phase distribution in T47D cells; set-up: reduction of the proportion of mitotic T47D cells in prophase/prometaphase: dose or concentration left out as unconfirmed
Description: (§1) To prepare cell monolayers, 0.5×10^6 cells were cytospun onto glass slides at 800×g for 5 min using a Cytospin 4 cytocentrifuge (Thermo Scientific), air dried and fixed in 4% neutral buffered formalin overnight.
(§2) Section deparaffinisation, antigen retrieval and immuno-staining were performed using the Bond III Autostainer and Bond Polymer Refine Detection kit (Leica) according to the manufacturer's instructions. Heat-mediated antigen retrieval and proteolytic digestion were used for H3S10ph and PAPPA antigens, respectively. Primary antibodies were applied for 40 min at the following dilutions: PAPP-A at 1/200; H3S10ph at 1/4000. Cytospin preparations were immuno-stained using the same protocol without the deparaffinisation step. Incubation without primary antibody was used as a negative control and sections of tonsil and placenta were used as positive controls for H3S10ph and PAPPA antibodies, respectively.
Two consecutive serial sections from each tissue sample and two cytospin preparations for each cell line were immuno-stained for H3S10ph for analysis of mitotic phase distribution. […]
PAPPA and ZMPSTE24 (control) are zinc-dependent metalloproteinases of the metzincin superfamily. […] PAPPA and ZMPSTE24 expression levels were determined by qRT-PCR and western blot. […]

BT549 cells = assay: H3S10ph immuno-labelling, mitotic phase distribution in BT549 cells; conditions: BT549 cytospin preparations
Description: as §1
as §2, with “Incubation without primary antibody was used as a negative control and sections of tonsil and placenta were used as positive controls for H3S10ph and PAPPA antibodies, respectively.” left out
PAPPA was silenced by RNAi with a specific RNA duplex targeting PAPPA mRNA (Ambion s10042; sense 5′-GAGCCUACUUGGAUGUUAAtt-3′ (SEQ ID NO. 37) and antisense 5′-UUAACAUCCAAGUAGGCUCtg-3′ (SEQ ID NO. 38) or, alternatively, a pool of duplexes (ON-TARGETpIus SMARTpooI, Dharmacon). Non-targeting siRNA (Stealth RNAi Negative Control Med GC, Invitrogen) was used as negative control. All transfections were performed with Lipofectamine 2000 (Invitrogen). PAPPA siRNA at 100 nM final concentration was used to achieve efficient knock-down. Cells were harvested at the indicated time points post-transfection. Knock-down efficiency was assessed by qRT-PCR and/or Western blot. […]

CC[C@@H]1C(=O)N(C)c2cnc(Nc3ccc(C(=O)NC4CCN(C)CC4)cc3OC)nc2N1C1CCCC1 [BI2536]
phosphohistone H3 (H3S10ph) detection in synchronised cells (HeLa Kyoto cells): enrichment of prometaphase cells

Cc1cn([C@H]2C[C@H](O)[C@@H](CO)O2)c(=O)[nH]c1=O [thymidine]
phosphohistone H3 (H3S10ph) detection in synchronised cells (HeLa Kyoto cells): not detected

IGF-1: recombinant Human IGF-1 (IMR-233, Imgenex); IGF receptor agonist
effect on mitotic delay phenotype in T47D cells (T47D cells; T47D cells (PAPPA promoter methylated)): reverses the mitotic delay phenotype | reduction of the proportion of mitotic T47D cells in prophase/prometaphase (T47D cells; recombinant human IGF-1, harvested 24 h later, cells serum starved 48 h, versus control): approximately one half

siRNA-42: single RNA duplex targeting PAPPA mRNA, Ambion s10042 (SEQ ID NO. 37 and 38) (chain 1 GAGCCUACUUGGAUGUUAA; chain 2 UUAACAUCCAAGUAGGCUC; listed as RNA, chemistry not given here)
mitotic phase phenotype in BT549 cells (BT549 cells): prophase/prometaphase delay phenotype
